Reference: ChEMBL document CHEMBL6078703, “Discovery of Novel Thiophene-Based Baloxavir Derivatives as Potent Cap-Dependent Endonuclease Inhibitors for Influenza Treatment” (J Med Chem, 2024)

Legend:
Influenza A virus [1] = assay: Antiviral activity against influenza strain A/WSN/1933 (H1N1) infected in MDCK cells assessed as reduction of virus-induced cytopathic effect measured after 2 days incubation; format: functional, organism-based; conditions: 48 h
Influenza A virus [2] = assay: Antiviral activity against influenza strain A/Aichi/ 2/1968 (H3N2) infected in MDCK cells assessed as reduction of virus-induced cytopathic effect measured after 2 days incubation; format: functional, organism-based; conditions: 48 h
[3] = Cytotoxicity against dog MDCK cells assessed as cell viability measured after 48 hrs by CCK-8 assay; format: toxicity, cell-based, Canis lupus familiaris
[4] = Selectivity index, ratio of CC50 for dog MDCK cells to EC50 for antiviral activity against influenza strain A/WSN/1933 (H1N1) infected in MDCK cells; format: toxicity, cell-based; conditions: read-out: Selectivity Index
[5] = Selectivity index, ratio of CC50 for dog MDCK cells to EC50 for antiviral activity against influenza strain A/Aichi/ 2/1968 (H3N2) infected in MDCK cells; format: toxicity, cell-based; conditions: read-out: Selectivity Index
[6] = Metabolic stability in human liver microsomes assessed as intrinsic clearance measured up to 60 mins by LC-MS/MS analysis; format: ADME, Microsome; conditions: read-out: CLH
[7] = Metabolic stability in mouse liver microsomes assessed as intrinsic clearance measured up to 60 mins by LC-MS/MS analysis; format: ADME, Microsome; conditions: read-out: CLH

Structure (SMILES) | EC50 (Influenza A virus [1]) | EC50 (Influenza A virus [2]) | CC50 at 48 h [3] | selectivity ratio [4] | selectivity ratio [5] | CLint scaled [6] | CLint scaled [7]
O=C1c2c(O)c(=O)ccn2N([C@H](c2ccccc2)c2cccs2)[C@@H]2COCCN12 | 36.4 nM | 46.8 nM | > 50000 nM | > 1370 | > 1070 |  | 
Cc1ccc([C@@H](c2cccs2)N2[C@@H]3COCCN3C(=O)c3c(O)c(=O)ccn32)cc1C | 6.67 nM | 1.79 nM | 28000 nM | 4190 | 15600 |  | 
O=C1c2c(O)c(=O)ccn2N([C@H](c2ccc(F)c(F)c2)c2ccc(-c3ccccc3)s2)[C@@H]2COCCN12 | 20.4 nM | 3.75 nM | 48500 nM | 2380 | 12900 |  | 
O=C1c2c(O)c(=O)ccn2N([C@@H](c2ccc(Br)c(Br)c2)c2cccs2)[C@@H]2COCCN12 | 35.6 nM | 6.9 nM | > 50000 nM | > 1400 | > 7250 |  | 
O=C1c2c(O)c(=O)ccn2N([C@@H](c2cccc(F)c2)c2cccs2)[C@@H]2COCCN12 | 5.54 nM | 15.2 nM | > 50000 nM | > 9020 | > 3290 |  | 
O=C1c2c(O)c(=O)ccn2N([C@@H](c2ccc(F)c(F)c2)c2ccc(Br)s2)[C@@H]2COCCN12 | 30.2 nM | 31.6 nM | 19700 nM | 652 | 623 |  | 
O=C1c2c(O)c(=O)ccn2N([C@H](c2ccc3ccccc3c2)c2cccs2)[C@@H]2COCCN12 | 22.8 nM | 76.3 nM | 17200 nM | 752 |  |  | 
O=C1c2c(O)c(=O)ccn2N([C@H](c2cccs2)c2cc(F)c(F)c(F)c2F)[C@@H]2COCCN12 | 12.4 nM | 13.8 nM | > 50000 nM | > 4020 | > 3630 |  | 
O=C1c2c(O)c(=O)ccn2N([C@H](c2ccc(F)c(F)c2)c2cc3ccccc3s2)[C@@H]2COCCN12 | 20.9 nM | 20.3 nM | > 50000 nM | > 2400 | > 2460 |  | 
O=C(O)Cc1ccccc1Nc1c(Cl)cccc1Cl [DICLOFENAC] |  |  |  |  |  | 221 mL/min/kg | 136 mL/min/kg
O=C1c2c(O)c(=O)ccn2N([C@@H](c2ccc(Cl)c(Cl)c2)c2cccs2)[C@@H]2COCCN12 | 44.8 nM | 60.6 nM | 32600 nM | 729 | 539 |  | 
O=C1c2c(O)c(=O)ccn2N([C@H](c2ccc(Cl)c(Cl)c2)c2cccs2)[C@@H]2COCCN12 | 56.2 nM | 13 nM | 12100 nM | 215 | 931 |  | 
Cc1ccc([C@H](c2cccs2)N2[C@@H]3COCCN3C(=O)c3c(O)c(=O)ccn32)cc1C | 47.8 nM | 8.11 nM | 20500 nM | 429 | 2530 |  | 
O=C1c2c(O)c(=O)ccn2N([C@@H](c2cc(F)c(F)c(F)c2)c2cccs2)[C@@H]2COCCN12 | 9.34 nM | 5.43 nM | > 50000 nM | > 5350 | > 9210 |  | 
O=C1c2c(O)c(=O)ccn2N([C@H](c2ccc(Br)c(Br)c2)c2cccs2)[C@@H]2COCCN12 | 16.2 nM | 17.6 nM | 24900 nM | 1540 | 1410 |  | 
